Test results as given in patent US7087021B2, “Methods of screening for genes and agents affecting cardiac function” (priority 2001, dated 2006).

Tested on: Drosophila heart
Test: Effects of anesthesia on heart rate
Type: in vivo, Drosophila melanogaster
Conditions: for effect of anesthesia on heart rate (in words): anesthetized Drosophila
Excerpt: […] The flies are removed from the vial as soon as they are immobile.
A more preferred aspect the microscope is a Nikon Diaphot-TMD inverted microscope, with Nomarski (DIC) optics (without analyzer) and a 10×(N.A. 0.25) objective. Preferably, images are obtained by closing the field diaphragm, so that the light-beam is concentrated on the first ventricle of the fly's heart, and the intensity of the light-beam is increased to the maximum. Most preferably, the flies are positioned on their backs, approximately perpendicular to the light path, and fixed in this position by mounting the spread wings on a glass slide with double-stick tape. Images of the first cardiac ventricle are recorded using a Sony DXC-101 video camera on VHS tape, or using a similar recording apparatus, and the heart rate is measured from slow-motion replays. End-diastolic and end-systolic dimensions are measured on still images at the mid-point between the two major transversal tracheal tubes passing over the first cardiac ventricle. The images can also be analyzed by appropriate image analysis software. In certain aspects of the present invention semi-automated digital image processing is used to measure heart rate and its variation directly from video signals recorded in a single fly or multiple flies. Automated detection allows parameters such as heart rate variability to be detected in a single fly. […] For each fly 2-second video sequences (60 frames each) 10 times consecutively are acquired. […] After applying a low pass filter to reduce noise in the time-space signal, heart rate is estimated by automated counting of the peaks in the signal. […] An average and a standard deviation of the repetitions in the same fly, for example (i.e. about 10 repetitions) are obtained and the coefficient of variation is calculated (Armitage P, Berry G. Statistical Methods in Medical Research. 3rd ed. Oxford: Blackwell Scientific; 1994).
CO2 the most commonly employed anesthetic for Drosophila.

Compound | effect of anesthesia on heart rate (in words) | resumption of heart beat after cessation of gas exposure (n=10) [s] | heart rate immediately after anesthesia (immediately after ether anesthesia, n=5) [beats per minute] | heart rate after 30–40 min when leg movements began to return (same flies after 30–40 min, n=5, p=0.001) [beats per minute] | heart rate immediately after anesthesia (older flies, 48 days, n=7, first value) [beats per minute] | heart rate after recovery under the same conditions (older flies, 48 days, n=7, second value) [beats per minute] | heart rate immediately after anesthesia (young flies, 10 days, n=6, first value) [beats per minute] | heart rate after recovery under the same conditions (young flies, 10 days, n=6, second value) [beats per minute]
O=C=O [CO2] | cardiac arrest within a few seconds | 20 to 30 | – | – | – | – | – | –
CCOCC [Ethyl-ether] | depress heart rate | – | 120±19 | 248±11 | – | – | – | –
CCN(CC)CC [triethylamine] | not cause significant changes in heart rate | – | – | – | 213±6 | 211±11 | 283±6 | 282±4
